Measurements as given in patent publication US8980910B2, “Treatment of glaucoma” (Indiana University Research and Technology Corporation, priority 2011, dated 2015).
“Also recorded” adds a separate entry of the source.

Experiments:
[1] = target: T1, orexin receptor-1 (ORX 1) (Homo sapiens, UniProt O43613); conditions: orexin A relative to orexin B; cited from earlier work
T1 sequence (O43613 1-425): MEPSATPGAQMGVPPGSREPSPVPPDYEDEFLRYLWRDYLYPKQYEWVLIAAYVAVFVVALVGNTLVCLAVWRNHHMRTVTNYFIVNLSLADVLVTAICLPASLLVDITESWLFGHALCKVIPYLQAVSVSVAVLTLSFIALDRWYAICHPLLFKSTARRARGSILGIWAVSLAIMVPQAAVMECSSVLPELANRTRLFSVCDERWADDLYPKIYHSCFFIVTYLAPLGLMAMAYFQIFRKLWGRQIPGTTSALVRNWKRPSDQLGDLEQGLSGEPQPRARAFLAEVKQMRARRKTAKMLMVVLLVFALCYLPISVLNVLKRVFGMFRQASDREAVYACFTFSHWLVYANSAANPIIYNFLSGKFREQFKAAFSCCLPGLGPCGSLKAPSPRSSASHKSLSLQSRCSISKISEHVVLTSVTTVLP

[2] = tested on: isoflurane-anesthetized rats; test: infusion of bicuculline methiodide into the region of the DMH, simultaneous measurement of blood pressure, heart rate and IOP; type: in vivo, rat; conditions: BMI 30 pmol/75 nL into the DMH vs saline vehicle
Procedure: FIG. 2A-C Simultaneous measurement of blood pressure (FIG. 2A), heart rate (FIG. 2B), and IOP (FIG. 2C) in a series of isoflurane-anesthetized rats after infusion of bicuculline methiodide (30 pmol/75 nL; n=9) or saline vehicle (75 nL; n=10) into the region of the DMH. * indicates a significant difference (p<0.05) between the vehicle treated and the BMI treated group using a repeated measures ANOVA followed by post-hoc analysis for differences between timepoints using a t-test.
To investigate whether orexin containing neurons located in the dorsornedial hypothalamus (DMH) and/or perifornical (PeF) area play a role in mediating the circadian fluctuations in IOP, isoflurane-anesthetized rats were administered orexin inhibitors and their vital functions were monitored.

panic-prone rats = conditions: 30 mg/kg i.p. prior to 15 min i.v. infusion of 0.5M sodium lactate
Source text: Panic disorder is associated with disruption of central inhibitory gamma-aminobutyric acid (GABAergic) tone, and may contribute to panic attacks which are consistently provoked by ordinarily mild physical stressors such as mild osmotic disturbances (e.g., intravenous sodium lactate challenges). […] Orexin/hypocretin producing neurons are almost exclusive to dorsomedial hypothalamus/perifornical area and adjacent lateral hypothalamus, and play a critical role in maintaining wakefulness, vigilance and central sympathetic mobilization, which are key components of panic and anxiety. Experiments were conducted to investigate whether the administration of either a systemic orexin 1 antagonist or silencing the hypothalamic orexin gene product with RNA interference could block lactate-induced panic responses.

[3] = tested on: isoflurane anesthetized rat; test: attenuation of physiologic responses to BMI microinjection into the DMH by systemic orexin-1 receptor antagonist; type: in vivo; conditions: 30 mg/kg i.p.; BMI 20 pmol/50 nL into the DMH before and after antagonist; FIG. 3; listed as SB334861
Procedure: FIG. 3 Continuous and simultaneous measurement of blood pressure, heart rate, and core body temperature in an isoflurane anesthetized rat after identical microinjections of BMI (20 pmol/50 nL) into the DMH (time marks 1 and 3) before and after systemic administration of the orexin-1 receptor antagonist SB334861 (30 mg/kg i.p.; time mark 2).
Experiments were then conducted to determine whether an orexin-I receptor antagonist (SB334861) could attenuate the physiologic responses to chemical stimulation of the DMH. To test orexin inhibitors ability to attenuate the BMI stimulated response, BMI was administered to an isoflurane-anesthetized rat both before and after administration of the orexin inhibitor and the responses were monitored.

orexin A: 33-amino acid neuropeptide, endogenous ligand of orexin receptors (QPLPDCCRQKTCSCRLYELLHGAGNHAAGILTL; Orexin-A; UniProt O43612 34-66, looked up)
affinity of ORX 1 for orexin A greater than for orexin B [1]: 1 order of magnitude

C[N+]1(C)CCc2cc3c(cc2[C@H]1[C@@H]1OC(=O)c2c1ccc1c2OCO1)OCO3.[I-] [BMI, bicuculline methiodide]
blood pressure after chemical stimulation of the DMH ([2]; FIG. 2A): expected increases | heart rate after chemical stimulation of the DMH ([2]; FIG. 2B): expected increases | IOP after chemical stimulation of the DMH ([2]; FIG. 2C): evoked an increase

Cc1nc2ccc(NC(=O)Nc3ccnc4cccnc34)cc2o1 [SB334867, 1-(2-methylbenzoxazol-6-yl)-3-[1,5]naphthyridin-4-yl urea]
lactate induced increases in core body temperature (thermogenic response) (panic-prone rats; FIG. 1C): attenuated; also recorded: blocks | lactate induced increases in heart rate (cardioexcitatory response) (panic-prone rats; FIG. 1D): attenuated; also recorded: blocks | BMI-evoked increase in blood pressure [3]: significant attenuation | BMI-evoked increase in core body temperature [3]: significant attenuation | BMI-evoked increase in heart rate [3]: significant attenuation
